From patent US9109041B2, “Analog compounds of analgesic peptides derived from the venom of crotalus durissus terrificus snakes, their uses, compositions, methods of preparation and purification” (priority 2004, dated 2015)

Test system: allodynia induced by constriction of the sciatic nerve
Assay: allodynia induced by chronic constriction of the sciatic nerve (von Frey hairs)
Format: in vivo, rat
Conditions: for paw withdrawal threshold (allodynia), FM 24 h: day 14, 24 h after peptide; for paw withdrawal threshold (allodynia), FM 48 h: day 14, 48 h after peptide; for paw withdrawal threshold (allodynia), FM 72 h: day 14, 72 h after peptide; for paw withdrawal threshold (allodynia), FM 96 h: day 14, 96 h after peptide
Protocol: For the induction of neuropathic pain, surgery was performed in the sciatic nerve, in accordance with the method described by Bennett, G. J and Xie, Y. K. (Pain, 33:87-107, 1988). The animals were anesthetized with halothane. The sciatic nerve was exposed in the middle region of the thigh, moving away the femoral biceps muscle. Close to the trifurcation of the sciatic nerve, 7 mm of distance from the trifurcation, 4 loose ligations were performed (chromed catgut 4-0) around it, distant from each other in approximately 1 mm. The bindings were performed along the nerve, up to 4-5 mm from the initial point. The incision was sutured in layers, using silk suture thread number 4-0.
Allodynia was evaluated for quantitative testing, in response to tactile stimulus applied to the paws of the rat, according to the method described by Chaplan el al. (1994), modified. In this test, the rats were placed, individually, in plastic cages, with meshed wire at the bottom, to allow access to the paws of these animals. Briefly, a logarithmic series of 10 calibrated Semmes-Weinstein monofilaments (von Frey hairs, Aesthesiometer Semmer-Weinstein, Stoelting Co., E.U.A) was applied to the right hind paw to determine the stimulus intensity threshold stiffness required to elicit a paw withdrawal response. Log stiffness of the hairs is determined by log 10 (mg×10) having the following values (the value in grams is between parenthesis): 3.61 (0.407 g); 3.84 (0.692 g); 4.08 (1.202 g); 4.17 (1.479 g); 4.31 (2.041 g); 4.56 (3.630 g); 4.74 (5.495 g); 4.93 (8.511 g); 5.07 (11.749 g) and 5.18 (15.136 g). It is important to point out that the filaments with weight greater than 15.136 g were not employed in the studies of allodynia.
The filaments were applied, one by one, perpendicularly, under the plantar area of both hind paws and maintained for a period of 8 seconds. The filament capable of eliciting the withdrawal of the paw, two consecutive times, was considered as the force in grams necessary to elicit the response (100% of response). In the absence of a response to the greater stimulus (15.135 g), this filament was considered as cut value.
The behavioral responses were used to calculate the 50% paw withdrawal threshold (absolute threshold), by fitting a gaussian integral psychometric function, using a maximum-likelihood fitting method. This fitting method allows parametric analyses.
The period of the application of the test and the treatments were the same as those used for determination of hyperalgesia (Table 12).
The results were analyzed by comparing the means of the basal and initial measurements or, when determined, by comparing the means obtained in the different experimental groups.
For this purpose, the animals were treated with CTOP, a specific μ receptor antagonist (20 μg/paw), nor-BNI, a specific κ receptor antagonist (50 μg/paw) or with ICI 174,864, a specific δ receptor antagonist (10 μg/paw). The antagonists were injected, by intraplantar route. The peptide was administered in the dose of 5 μg/kg, orally, immediately before the injection of the opioid antagonists.
The results were analyzed comparing the mean values of the basal and initial measurements, or of the initial and final measurements or, when determined, by comparing the mean values obtained in the different experimental groups (Tables 15 and 16).

Xaa-Phe-Ser-Pro-Glu-Asn-Cys-Gln-Gly-Glu-Ser-Gln-Pro-Cys [SEQ ID NO: 2]
paw withdrawal threshold (allodynia), BM (0.0016 μg/kg p.o., before surgery): 5.02 ± 0.03 log 10 (mg × 10)
paw withdrawal threshold (allodynia), FM 1 h (0.0016 μg/kg p.o., day 14, 1 h after peptide): 4.22 ± 0.00 log 10 (mg × 10)
paw withdrawal threshold (allodynia), FM 3 h (0.0016 μg/kg p.o., day 14, 3 h after peptide): 4.22 ± 0.00 log 10 (mg × 10)
paw withdrawal threshold (allodynia), FM 24 h (0.0016 μg/kg p.o.): 4.22 ± 0.00 log 10 (mg × 10)
paw withdrawal threshold (allodynia), FM 48 h (0.0016 μg/kg p.o.): 4.22 ± 0.00 log 10 (mg × 10)
paw withdrawal threshold (allodynia), FM 72 h (0.0016 μg/kg p.o.): 4.22 ± 0.00 log 10 (mg × 10)
paw withdrawal threshold (allodynia), FM 96 h (0.0016 μg/kg p.o.): 4.22 ± 0.00 log 10 (mg × 10)
paw withdrawal threshold (allodynia), IM (0.0016 μg/kg p.o., day 14 after surgery, before peptide): 4.22 ± 0.00 log 10 (mg × 10)
paw withdrawal threshold (allodynia), BM (0.008 μg/kg p.o., before surgery): 4.99 ± 0.02 log 10 (mg × 10)
paw withdrawal threshold (allodynia), FM 1 h (0.008 μg/kg p.o., day 14, 1 h after peptide): 4.22 ± 0.00 log 10 (mg × 10)
paw withdrawal threshold (allodynia), FM 3 h (0.008 μg/kg p.o., day 14, 3 h after peptide): 4.22 ± 0.00 log 10 (mg × 10)
paw withdrawal threshold (allodynia), FM 24 h (0.008 μg/kg p.o.): 4.22 ± 0.00 log 10 (mg × 10)
paw withdrawal threshold (allodynia), FM 48 h (0.008 μg/kg p.o.): 4.22 ± 0.00 log 10 (mg × 10)
paw withdrawal threshold (allodynia), FM 72 h (0.008 μg/kg p.o.): 4.22 ± 0.00 log 10 (mg × 10)
paw withdrawal threshold (allodynia), FM 96 h (0.008 μg/kg p.o.): 4.22 ± 0.00 log 10 (mg × 10)
paw withdrawal threshold (allodynia), IM (0.008 μg/kg p.o., day 14 after surgery, before peptide): 4.22 ± 0.00 log 10 (mg × 10)
paw withdrawal threshold (allodynia), BM (0.04 μg/kg p.o., before surgery): 4.97 ± 0.99 log 10 (mg × 10)
paw withdrawal threshold (allodynia), FM 1 h (0.04 μg/kg p.o., day 14, 1 h after peptide): 4.22 ± 0.00 log 10 (mg × 10)
paw withdrawal threshold (allodynia), FM 3 h (0.04 μg/kg p.o., day 14, 3 h after peptide): 4.22 ± 0.00 log 10 (mg × 10)
paw withdrawal threshold (allodynia), FM 24 h (0.04 μg/kg p.o.): 4.22 ± 0.00 log 10 (mg × 10)
paw withdrawal threshold (allodynia), FM 48 h (0.04 μg/kg p.o.): 4.26 ± 0.04 log 10 (mg × 10)
paw withdrawal threshold (allodynia), FM 72 h (0.04 μg/kg p.o.): 4.22 ± 0.00 log 10 (mg × 10)
paw withdrawal threshold (allodynia), FM 96 h (0.04 μg/kg p.o.): 4.22 ± 0.00 log 10 (mg × 10)
paw withdrawal threshold (allodynia), IM (0.04 μg/kg p.o., day 14 after surgery, before peptide): 4.22 ± 0.00 log 10 (mg × 10)
paw withdrawal threshold (allodynia), BM (0.2 μg/kg p.o., before surgery): 5.03 ± 0.02 log 10 (mg × 10)
paw withdrawal threshold (allodynia), FM 1 h (0.2 μg/kg p.o., day 14, 1 h after peptide): 4.41 ± 0.00 log 10 (mg × 10)
paw withdrawal threshold (allodynia), FM 3 h (0.2 μg/kg p.o., day 14, 3 h after peptide): 4.41 ± 0.00 log 10 (mg × 10)
paw withdrawal threshold (allodynia), FM 24 h (0.2 μg/kg p.o.): 4.41 ± 0.00 log 10 (mg × 10)
paw withdrawal threshold (allodynia), FM 48 h (0.2 μg/kg p.o.): 4.41 ± 0.00 log 10 (mg × 10)
paw withdrawal threshold (allodynia), FM 72 h (0.2 μg/kg p.o.): 4.41 ± 0.00 log 10 (mg × 10)
paw withdrawal threshold (allodynia), FM 96 h (0.2 μg/kg p.o.): 4.22 ± 0.00 log 10 (mg × 10)
paw withdrawal threshold (allodynia), IM (0.2 μg/kg p.o., day 14 after surgery, before peptide): 4.22 ± 0.00 log 10 (mg × 10)
paw withdrawal threshold (allodynia), BM (1 μg/kg p.o., before surgery): 5.06 ± 0.02 log 10 (mg × 10)
paw withdrawal threshold (allodynia), FM 1 h (1 μg/kg p.o., day 14, 1 h after peptide): 4.62 ± 0.00 log 10 (mg × 10)
paw withdrawal threshold (allodynia), FM 3 h (1 μg/kg p.o., day 14, 3 h after peptide): 4.62 ± 0.00 log 10 (mg × 10)
paw withdrawal threshold (allodynia), FM 24 h (1 μg/kg p.o.): 4.62 ± 0.00 log 10 (mg × 10)
paw withdrawal threshold (allodynia), FM 48 h (1 μg/kg p.o.): 4.62 ± 0.00 log 10 (mg × 10)
paw withdrawal threshold (allodynia), FM 72 h (1 μg/kg p.o.): 4.62 ± 0.00 log 10 (mg × 10)
paw withdrawal threshold (allodynia), FM 96 h (1 μg/kg p.o.): 4.22 ± 0.00 log 10 (mg × 10)
paw withdrawal threshold (allodynia), IM (1 μg/kg p.o., day 14 after surgery, before peptide): 4.23 ± 0.01 log 10 (mg × 10)
paw withdrawal threshold (allodynia), FM 1 h (5 μg/kg p.o. + CTOP 20 μg/paw i.pl., 1 h after peptide): 5.00 ± 0.05 log 10 (mg × 10)
paw withdrawal threshold (allodynia), FM 3 h (5 μg/kg p.o. + CTOP 20 μg/paw i.pl., 3 h after peptide): 4.99 ± 0.02 log 10 (mg × 10)
paw withdrawal threshold (allodynia), BM (5 μg/kg p.o. + CTOP 20 μg/paw i.pl., before surgery): 4.99 ± 0.02 log 10 (mg × 10)
paw withdrawal threshold (allodynia), IM (5 μg/kg p.o. + CTOP 20 μg/paw i.pl., day 14, before peptide): 4.29 ± 0.04 log 10 (mg × 10)
paw withdrawal threshold (allodynia), FM 1 h (5 μg/kg p.o. + ICI 174,864 10 μg/paw i.pl., 1 h after peptide): 4.22 ± 0 log 10 (mg × 10)
paw withdrawal threshold (allodynia), FM 3 h (5 μg/kg p.o. + ICI 174,864 10 μg/paw i.pl., 3 h after peptide): 4.22 ± 0 log 10 (mg × 10)
paw withdrawal threshold (allodynia), BM (5 μg/kg p.o. + ICI 174,864 10 μg/paw i.pl., before surgery): 4.96 ± 0.04 log 10 (mg × 10)
paw withdrawal threshold (allodynia), IM (5 μg/kg p.o. + ICI 174,864 10 μg/paw i.pl., day 14, before peptide): 4.29 ± 0.04 log 10 (mg × 10)
paw withdrawal threshold (allodynia), FM 1 h (5 μg/kg p.o. + nor-BNI 50 μg/paw i.pl., 1 h after peptide): 4.62 ± 0 log 10 (mg × 10)
paw withdrawal threshold (allodynia), FM 3 h (5 μg/kg p.o. + nor-BNI 50 μg/paw i.pl., 3 h after peptide): 4.62 ± 0 log 10 (mg × 10)
paw withdrawal threshold (allodynia), BM (5 μg/kg p.o. + nor-BNI 50 μg/paw i.pl., before surgery): 5.03 ± 0.02 log 10 (mg × 10)
paw withdrawal threshold (allodynia), IM (5 μg/kg p.o. + nor-BNI 50 μg/paw i.pl., day 14, before peptide): 4.25 ± 0.03 log 10 (mg × 10)
paw withdrawal threshold (allodynia), FM 1 h (5 μg/kg p.o., 1 h after peptide (Table 16)): 5.08 ± 0.01 log 10 (mg × 10)
paw withdrawal threshold (allodynia), FM 3 h (5 μg/kg p.o., 3 h after peptide (Table 16)): 5.09 ± 0 log 10 (mg × 10)
paw withdrawal threshold (allodynia), BM (5 μg/kg p.o., before surgery (Table 12)): 4.99 ± 0.03 log 10 (mg × 10)
paw withdrawal threshold (allodynia), BM (5 μg/kg p.o., before surgery (Table 16)): 5.00 ± 0.03 log 10 (mg × 10)
paw withdrawal threshold (allodynia), FM 1 h (5 μg/kg p.o., day 14, 1 h after peptide (Table 12)): 4.94 ± 0.05 log 10 (mg × 10)
paw withdrawal threshold (allodynia), FM 3 h (5 μg/kg p.o., day 14, 3 h after peptide (Table 12)): 4.98 ± 0.04 log 10 (mg × 10)
paw withdrawal threshold (allodynia), FM 24 h (5 μg/kg p.o.): 4.97 ± 0.03 log 10 (mg × 10)
paw withdrawal threshold (allodynia), FM 48 h (5 μg/kg p.o.): 4.93 ± 0.04 log 10 (mg × 10)
paw withdrawal threshold (allodynia), FM 72 h (5 μg/kg p.o.): 4.85 ± 0.02 log 10 (mg × 10)
paw withdrawal threshold (allodynia), FM 96 h (5 μg/kg p.o.): 4.21 ± 0.01 log 10 (mg × 10)
paw withdrawal threshold (allodynia), IM (5 μg/kg p.o., day 14, before peptide (Table 16)): 4.27 ± 0.04 log 10 (mg × 10)
paw withdrawal threshold (allodynia), IM (5 μg/kg p.o., day 14 after surgery, before peptide (Table 12)): 4.23 ± 0.00 log 10 (mg × 10)
duration of the anti-allodynic effect (one single administration p.o.): up to 3 days
effect of the mu opioid receptor antagonist on the anti-allodynic effect of the peptide (peptide 5 μg/kg p.o., CTOP 20 μg/paw i.pl.): did not alter
effect of the delta opioid receptor antagonist on the anti-allodynic effect of the peptide (peptide 5 μg/kg p.o., ICI 174,864 10 μg/paw i.pl.): blocked
effect of the kappa opioid receptor antagonist on the anti-allodynic effect of the peptide (peptide 5 μg/kg p.o., nor-BNI 50 μg/paw i.pl.): partially inhibited
